Assay [1] deals with Coagulation factor X (Homo sapiens, UniProt P00742). Put plainly: Inhibition of f10a.
The target of assay [2] is Plasminogen (Homo sapiens, UniProt P00747). Put plainly: Inhibition of plasmin.
Assay [3] has as its target T1, Suppressor of tumorigenicity 14 protein (Homo sapiens, UniProt Q9Y5Y6).
T1 sequence (Q9Y5Y6 whole entry): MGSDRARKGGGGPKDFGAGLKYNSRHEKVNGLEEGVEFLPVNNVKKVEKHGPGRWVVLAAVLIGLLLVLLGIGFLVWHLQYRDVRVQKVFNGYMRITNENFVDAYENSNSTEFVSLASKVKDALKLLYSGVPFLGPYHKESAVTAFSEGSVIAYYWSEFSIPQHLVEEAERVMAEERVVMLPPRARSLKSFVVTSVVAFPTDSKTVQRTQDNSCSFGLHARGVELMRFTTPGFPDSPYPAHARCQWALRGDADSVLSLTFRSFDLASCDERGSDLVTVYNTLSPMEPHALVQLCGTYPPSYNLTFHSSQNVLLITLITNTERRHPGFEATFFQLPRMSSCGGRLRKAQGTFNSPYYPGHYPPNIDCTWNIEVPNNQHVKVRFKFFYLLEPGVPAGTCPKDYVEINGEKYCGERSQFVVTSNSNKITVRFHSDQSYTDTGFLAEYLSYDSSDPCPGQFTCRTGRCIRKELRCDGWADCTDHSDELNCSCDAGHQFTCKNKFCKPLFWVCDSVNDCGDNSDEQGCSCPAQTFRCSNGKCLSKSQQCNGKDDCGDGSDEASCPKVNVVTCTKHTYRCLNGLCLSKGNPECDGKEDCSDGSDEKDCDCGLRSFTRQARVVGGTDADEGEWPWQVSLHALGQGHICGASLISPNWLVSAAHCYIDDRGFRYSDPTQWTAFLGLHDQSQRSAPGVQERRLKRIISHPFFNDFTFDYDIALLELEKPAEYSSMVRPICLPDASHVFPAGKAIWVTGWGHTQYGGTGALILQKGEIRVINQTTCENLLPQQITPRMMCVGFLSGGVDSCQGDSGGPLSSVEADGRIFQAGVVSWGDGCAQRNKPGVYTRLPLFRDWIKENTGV

The target of assay [4] is T1, Suppressor of tumorigenicity 14 protein. The assay can be described thus: Reduction of matriptase-catalyzed pro-HGF to HGF processing. Type of assay: functional.
Assay [5] deals with Urokinase-type plasminogen activator (Homo sapiens, UniProt P00749). Put plainly: Inhibition of uPA.
In assay [6] the target is T2, Prothrombin (Homo sapiens, UniProt P00734). The assay can be described thus: Inhibition of thrombin.
The target of assay [7] is Coagulation factor VII/tissue factor (Homo sapiens) (UniProt P08709+P13726). Conditions: Blood.
Description: Anticoagulant activity in blood by PT assay
For assay [8], the system named is PC-3. Put plainly: Reduction of median primary tumor growth of PC3 cell line xenografted in nude mouse at 5 mg/kg, ip. Type of assay: functional, Homo sapiens. Further details: scale not given: the % may be the effect or the level left. Conditions: route intraperitoneal.
Assay [9] is described as follows: Anticoagulant activity in blood by aPTT assay. Type of assay: functional, Homo sapiens.
In assay [10] the test system is PC-3. The assay can be described thus: Reduction of dissemination into thorax in nude mouse xenografted with PC3 cell line at 5 mg/kg, ip. Type of assay: functional. Further details: scale not given: the % may be the effect or the level left. To be noted: route intraperitoneal.
Assay [11] deals with T2, Prothrombin. Conditions: Blood.

Chain of Coagulation factor X (P00742 41-179 limits assumed): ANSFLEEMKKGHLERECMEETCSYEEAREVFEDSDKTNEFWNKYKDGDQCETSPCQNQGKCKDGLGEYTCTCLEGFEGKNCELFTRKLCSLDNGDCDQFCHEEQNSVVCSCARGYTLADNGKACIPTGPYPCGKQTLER
Chain of Coagulation factor X (P00742 235-488 limits assumed): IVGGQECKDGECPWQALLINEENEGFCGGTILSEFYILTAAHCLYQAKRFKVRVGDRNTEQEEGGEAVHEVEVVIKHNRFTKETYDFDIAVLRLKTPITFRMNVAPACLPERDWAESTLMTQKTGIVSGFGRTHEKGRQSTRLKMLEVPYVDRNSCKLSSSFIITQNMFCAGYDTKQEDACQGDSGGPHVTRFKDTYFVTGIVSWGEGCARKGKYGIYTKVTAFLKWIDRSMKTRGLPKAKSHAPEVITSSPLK
Chain of Plasminogen (P00747 97-580 limits assumed): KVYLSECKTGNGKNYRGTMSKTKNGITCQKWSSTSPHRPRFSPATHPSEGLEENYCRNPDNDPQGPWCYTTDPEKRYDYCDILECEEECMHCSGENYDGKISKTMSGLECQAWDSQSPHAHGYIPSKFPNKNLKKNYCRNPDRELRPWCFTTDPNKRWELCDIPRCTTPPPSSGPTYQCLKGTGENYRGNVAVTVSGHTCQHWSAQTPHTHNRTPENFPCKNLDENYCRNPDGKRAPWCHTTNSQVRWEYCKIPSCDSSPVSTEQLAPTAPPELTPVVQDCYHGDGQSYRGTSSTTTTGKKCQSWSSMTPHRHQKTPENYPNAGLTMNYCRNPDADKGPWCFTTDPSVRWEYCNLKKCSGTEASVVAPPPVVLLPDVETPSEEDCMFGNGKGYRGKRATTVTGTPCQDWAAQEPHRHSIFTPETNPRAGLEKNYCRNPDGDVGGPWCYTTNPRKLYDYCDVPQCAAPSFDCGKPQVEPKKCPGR
Chain of Plasminogen (P00747 581-810 limits assumed): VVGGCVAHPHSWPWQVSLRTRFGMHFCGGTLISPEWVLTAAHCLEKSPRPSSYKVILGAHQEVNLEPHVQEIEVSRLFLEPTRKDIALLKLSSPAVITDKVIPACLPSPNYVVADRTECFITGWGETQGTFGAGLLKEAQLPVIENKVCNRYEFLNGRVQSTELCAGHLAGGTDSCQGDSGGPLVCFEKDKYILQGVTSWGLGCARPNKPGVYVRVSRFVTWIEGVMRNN

As usually defined, the Ki is a dissociation constant, usually derived from enzyme kinetics or from competition with a known ligand. A word on the IC50: it is the concentration at which inhibition is half-maximal. For `N=C(N)c1cccc(C[C@H](NS(=O)(=O)c2ccc(C3CCCCC3)cc2)C(=O)N2CCN(C(=N)N)CC2)c1`, the Ki in assay [1] came out at 1.3 µM; in [2], 3.1 µM; in [3], 0.026 µM; in assay [5], 8.2 µM; in assay [6], 1.7 µM. Besides, the IC50 in [4] worked out at 3 µM.
For `N=C(N)c1cccc(C[C@H](NS(=O)(=O)c2cccc(NC(=O)CCN)c2)C(=O)N2CCC(CCN)CC2)c1`, the IC200 in assay [7], in [9] and in [11] was more than 10 µM throughout. Also, the Activity in assay [8] was determined as 40%; in assay [10], 33%. The Ki in [1] was 21 µM; in assay [2], 2.4 µM; in assay [3], 0.0066 µM; in assay [5] it was 3.6 µM; in assay [6], 27 µM.

The values above are taken from ChEMBL document CHEMBL1138903, “Secondary amides of sulfonylated 3-amidinophenylalanine. New potent and selective inhibitors of matriptase” (J Med Chem, 2006).
